Data reported in patent publication US10766890B2, “Hepatitis B core protein modulators” (Assembly Biosciences, Inc., priority 2015, dated 2020).

Assays:
HBV = test: Viral load production in AD38 cells, quantitative PCR of the core sequence in supernatant; format: cell-based; conditions: Hepatitis B virus, 144 h, 10 μM compound, 6 days at 37° C., supernatant qPCR vs DMSO control, read-out: AD38 Viral Load (%) (VL with cmpd/VL in DMSO control) at 10 μM
Procedure: (§1) Example 63: Assay Measuring Activity of Compounds on Viral Production in and on Viability of AD38 Cells
(§2) AD38 cells were then re-suspended with 10 mL of Treatment Medium and counted. Wells of a collagen coated 96-well NUNC microtiter plate were seeded at 50,000/well in 180 μL of Treatment Medium, and 20 μL of in treatment media with either 10% DMSO (Control) or a 10× solution of compound in 10% DMSO was added. Plates were incubated for 6 days at 37° C.
Viral load production was assayed by quantitative PCR of the core sequence. […] The PCR mixture was incubated at 45° C. for 5 minutes, then 95° C. for 10 min, followed by 40 cycles of 10 seconds at 95° C. and 20 seconds at 60° C. Viral load was quantitated against known standards by using ViiA™ 7 Software. Viral load in the supernatant from wells with treated cells were compared against viral load in supernatant from DMSO control wells (≥3 per plate).

AD38 cells = test: Viability of AD38 cells, Promega CellTiter-Glo; format: cell-based; conditions: 10 μM compound, 6 days, CellTiter-Glo luminescence, controls being 100%
Procedure: as §1, §2
At the end of compound treatment period cell viability was assessed using a Promega CellTiter-Glo protocol. All supernatant was removed the previously treated 96-well microtiter plate, and 50 μL Tetracycline-free treatment medium (DMEM/F12 (1:1), 1×Pen/step (cat#: 30-002-CL, Mediatech, Inc), with 2% FBS, Tet-system approved (cat#: 631106, Clontech), and 1% DMSO was added back to each well. Another 50 μL of CellTiter-Glo reagent solution (Promega, G7573) was then added at room temperature and the contents mixed for 2 minutes on an orbital shaker to induce cell lysis. This was followed by incubation at room temperature for 10 minutes to stabilize the luminescent signal. The luminescence was recorded for 0.2 seconds per well on a Tecan multimode platereader (Infinite M1000 pro). The luminescent signal from each well was normalized against that of untreated (DMSO) control wells. All results in Table 3 were reported with percent viability (with controls being 100%).

SMILES | activity at 10 µM (HBV) [%] | AD38 Viability Normalized Result (cmpd/DMSO %) at 10 μM (AD38 cells) [%]
O=C(NCc1ccc(-c2ccc(O)nc2)cc1)c1ccc2c(c1)NC(=O)c1ccccc1S2(=O)=O [Compound 776, N-(4-(6-hydroxypyridin-3-yl)benzyl)-11-oxo-10,11-dihydrodibenzo[b,f][1,4]thiazepine-8-carboxamide 5,5-dioxide] | 63.1 | 100
O=C(NCc1cccc(-n2nccn2)c1)c1ccc2c(c1)NC(=O)c1ccccc1S2(=O)=O [Compound 568] | 3 | 101
O=C(NCc1ccc(-c2ccc(F)cc2)cc1)c1ccc2c(c1)NC(=O)c1ccccc1S2(=O)=O [Compound 564] | 0.9 | 29
C[C@@H](NC(=O)c1ccc2c(c1)NC(=O)c1ccccc1S2(=O)=O)c1ccc(-c2ccc(O)cc2)cc1 [Compound 643] | 30 | 104
O=C(NCc1cccc(Oc2ccc(O)cc2)c1)c1ccc2c(c1)NC(=O)c1ccccc1O2 [Compound 745, N-(3-(4-hydroxyphenoxy)benzyl)-11-oxo-10,11-dihydrodibenzo[b,f][1,4]oxazepine-8-carboxamide] | 38.7 | 108
CN1c2ccc(C(=O)NCCc3ccc(S(=O)(=O)N(C)C)cc3)cc2NC(=O)c2ccccc21 [Compound 498] | 13.8 | 76
COc1cccc(Sc2cccc(CNC(=O)c3ccc4c(c3)NC(=O)c3ccccc3O4)c2)c1 [Compound 742-A, N-(3-((3-methoxyphenyl)thio)benzyl)-11-oxo-10,11-dihydrodibenzo[b,f][1,4]oxazepine-8-carboxamide] | 2.6 | 107
O=C(NCc1ccc(-c2ccc3[nH]ccc3c2)cc1)c1ccc2c(c1)NC(=O)c1ccccc1O2 [Compound 730] | 24.2 | 101
O=C(NCc1ccc(-n2nccn2)cc1)c1ccc2c(c1)NC(=O)c1ccccc1S2(=O)=O [Compound 567] | 3.3 | 104
Nc1ncc(-c2ccc(CNC(=O)c3ccc4c(c3)NC(=O)c3ccccc3S4(=O)=O)cc2)cn1 [Compound 777] | 11.7 | 99
